Legend:
mouse xenograft models = settings: cited from earlier work
[1] = previous study; cited from earlier work
advanced solid tumors = assay: Anti-tumor activity per RECIST v1.1, dose-escalation cohort; assay type: in vivo, human
[2] = Plasma pharmacokinetics of belzutifan, phase 1 study; assay type: in vivo, human
[3] = test system: previously treated advanced ccRCC; assay: Anti-tumor activity per RECIST v1.1, ccRCC cohort; assay type: in vivo, human
[4] = Safety and dose-limiting toxicities, dose-escalation cohort; assay type: in vivo, human
Safety = assay type: in vivo, human; settings: for All-cause adverse event: Anemia / All-cause adverse event: Any / All-cause adverse event: Arthralgia / All-cause adverse event: Back pain / All-cause adverse event: Blood creatinine increased / All-cause adverse event: Constipation / All-cause adverse event: Cough / All-cause adverse event: Dehydration / All-cause adverse event: Diarrhea / All-cause adverse event: Dizziness / All-cause adverse event: Dyspnea / All-cause adverse event: Edema peripheral / All-cause adverse event: Fatigue / All-cause adverse event: Headache / All-cause adverse event: Hyperkalemia / All-cause adverse event: Hypoxia / All-cause adverse event: Nausea / All-cause adverse event: Vomiting: ccRCC cohort (n = 55)
erythropoietin = assay: Pharmacodynamics: plasma erythropoietin, phase 1 study; assay type: in vivo, human; settings: all dose levels
[5] = RECIST v1.1, ccRCC cohort, n = 55
[6] = ccRCC cohort n = 55, all grade 3

CS(=O)(=O)c1ccc(Oc2cc(F)cc(C#N)c2)c2c1[C@H](O)C(F)(F)C2 [MK-3795, reference compound]
Tumor regression (mouse xenograft models; xenograft models): significant tumor regression

CS(=O)(=O)c1ccc(Oc2cc(F)cc(C#N)c2)c2c1[C@H](O)[C@H](F)[C@@H]2F [belzutifan, 3-[(1 S,2 S,3 R)-2,3-difluoro-1-hydroxy-7-methylsulfonylindan-4-yl]oxy-5-fluorobenzo nitrile]
Exposure to belzutifan, dependence on dose [1]: increased with doses up to 120 mg once daily | Responses (all partial) (advanced solid tumors; 120 mg once daily, one of six patients): 17% | Responses (all partial) (advanced solid tumors; 120 mg twice daily, one of six patients): 17% | Responses (all partial) (advanced solid tumors; 160 mg once daily, two of six patients): 33% | Median duration of response (advanced solid tumors; any dose cohort, patients who had a response): not reached | Dose-normalized area under the concentration curve from time 0 to the end of the dosing period, dependence on dose ([2]; 20–240 mg once daily): increased with dose from 20 to 120 mg but decreased from 120 to 240 mg once daily | Mean accumulation ratio ([2]; 120-mg twice-daily dosing): 2.4 | Increase in maximum concentration ([2]; 240-mg once-daily cohort compared to 120-mg once-daily expansion cohort): 38% | Median time to maximum observed plasma concentration ([2]; across dose levels, oral): 1.0 to 2.0 h | half-life ([2]; human, in vivo, po): 11.2 to 21.5 h | Mean accumulation ratio ([2]; once-daily dosing): 1.3–1.5 | Potency relative to MK-3795 (mouse xenograft models; mouse xenograft models): approximately ten-fold more potent than MK-3795 | Patients with target lesion size reduced from baseline ([3]; 35 of 52 patients with baseline and post-baseline imaging): 67% | Median progression-free survival ([3]; IMDC favorable risk): not reached | Complete response [3, 5]: 0 (0) no. (%) | Non-evaluable [3, 5]: 3 (5) no. (%) | Partial response [3, 5]: 14 (25) no. (%) | Progressive disease [3, 5]: 8 (15) no. (%) | Stable disease [3, 5]: 30 (54) no. (%) | Median duration of response ([3]; ccRCC cohort): not reached | Disease control rate ([3]; ccRCC cohort n = 55, 120 mg once daily): 80% | Objective response rate ([3]; ccRCC cohort n = 55, 120 mg once daily, all partial responses): 25% | Median progression-free survival ([3]; ccRCC cohort, 95% CI 7.3–not reached, Kaplan–Meier): 14.5 months | Responders with duration of response ≥6 months ([3]; ten of 14 responders): 71% | Patients with treatment-related dose-limiting toxicity ([4]; 120 mg twice daily, one of six patients, grade 3 hypoxia): 17% | Patients with treatment-related dose-limiting toxicity ([4]; 240 mg orally, one of seven patients, grade 4 thrombocytopenia): 14% | Maximum tolerated dose ([4]; dose-escalation cohort): not reached | Dose-limiting toxicities ([4]; doses up to 160 mg once daily): no dose-limiting toxicities | Patients with anemia who received exogenous erythropoietin (Safety; 28 of 42 patients with anemia): 67% | All-cause adverse event: Anemia (Safety; All grades or 2): 42 (76) no. (%) | All-cause adverse event: Any (Safety; All grades or 2): 55 (100) no. (%) | All-cause adverse event: Arthralgia (Safety; All grades or 2): 14 (25) no. (%) | All-cause adverse event: Back pain (Safety; All grades or 2): 12 (22) no. (%) | All-cause adverse event: Blood creatinine increased (Safety; All grades or 2): 14 (25) no. (%) | All-cause adverse event: Constipation (Safety; All grades or 2): 12 (22) no. (%) | All-cause adverse event: Cough (Safety; All grades or 2): 17 (31) no. (%) | All-cause adverse event: Dehydration (Safety; All grades or 2): 11 (20) no. (%) | All-cause adverse event: Diarrhea (Safety; All grades or 2): 12 (22) no. (%) | All-cause adverse event: Dizziness (Safety; All grades or 2): 13 (24) no. (%) | All-cause adverse event: Dyspnea (Safety; All grades or 2): 27 (49) no. (%) | All-cause adverse event: Edema peripheral (Safety; All grades or 2): 15 (27) no. (%) | All-cause adverse event: Fatigue (Safety; All grades or 2): 39 (71) no. (%) | All-cause adverse event: Headache (Safety; All grades or 2): 14 (25) no. (%) | All-cause adverse event: Hyperkalemia (Safety; All grades or 2): 12 (22) no. (%) | All-cause adverse event: Hypoxia (Safety; All grades or 2): 17 (31) no. (%) | All-cause adverse event: Nausea (Safety; All grades or 2): 20 (36) no. (%) | All-cause adverse event: Vomiting (Safety; All grades or 2): 16 (29) no. (%) | All-cause adverse event: Anemia (Safety; Grade 1): 27 (49) no. (%) | All-cause adverse event: Any (Safety; Grade 1): 16 (29) no. (%) | All-cause adverse event: Arthralgia (Safety; Grade 1): 14 (25) no. (%) | All-cause adverse event: Back pain (Safety; Grade 1): 11 (20) no. (%) | All-cause adverse event: Blood creatinine increased (Safety; Grade 1): 13 (24) no. (%) | All-cause adverse event: Constipation (Safety; Grade 1): 12 (22) no. (%) | All-cause adverse event: Cough (Safety; Grade 1): 17 (31) no. (%) | All-cause adverse event: Dehydration (Safety; Grade 1): 10 (18) no. (%) | All-cause adverse event: Diarrhea (Safety; Grade 1): 12 (22) no. (%) | All-cause adverse event: Dizziness (Safety; Grade 1): 13 (24) no. (%) | All-cause adverse event: Dyspnea (Safety; Grade 1): 24 (44) no. (%) | All-cause adverse event: Edema peripheral (Safety; Grade 1): 15 (27) no. (%) | All-cause adverse event: Fatigue (Safety; Grade 1): 36 (65) no. (%) | All-cause adverse event: Headache (Safety; Grade 1): 13 (24) no. (%) | All-cause adverse event: Hyperkalemia (Safety; Grade 1): 11 (20) no. (%) | All-cause adverse event: Hypoxia (Safety; Grade 1): 8 (15) no. (%) | All-cause adverse event: Nausea (Safety; Grade 1): 19 (35) no. (%) | All-cause adverse event: Vomiting (Safety; Grade 1): 16 (29) no. (%) | All-cause adverse event: Anemia (Safety; Grade 3): 15 (27) no. (%) | All-cause adverse event: Any (Safety; Grade 3): 33 (60) no. (%) | All-cause adverse event: Arthralgia (Safety; Grade 3): 0 (0) no. (%) | All-cause adverse event: Back pain (Safety; Grade 3): 1 (2) no. (%) | All-cause adverse event: Blood creatinine increased (Safety; Grade 3): 1 (2) no. (%) | All-cause adverse event: Constipation (Safety; Grade 3): 0 (0) no. (%) | All-cause adverse event: Cough (Safety; Grade 3): 0 (0) no. (%) | All-cause adverse event: Dehydration (Safety; Grade 3): 1 (2) no. (%) | All-cause adverse event: Diarrhea (Safety; Grade 3): 0 (0) no. (%) | All-cause adverse event: Dizziness (Safety; Grade 3): 0 (0) no. (%) | All-cause adverse event: Dyspnea (Safety; Grade 3): 3 (5) no. (%) | All-cause adverse event: Edema peripheral (Safety; Grade 3): 0 (0) no. (%) | All-cause adverse event: Fatigue (Safety; Grade 3): 3 (5) no. (%) | All-cause adverse event: Headache (Safety; Grade 3): 1 (2) no. (%) | All-cause adverse event: Hyperkalemia (Safety; Grade 3): 1 (2) no. (%) | All-cause adverse event: Hypoxia (Safety; Grade 3): 9 (16) no. (%) | All-cause adverse event: Nausea (Safety; Grade 3): 1 (2) no. (%) | All-cause adverse event: Vomiting (Safety; Grade 3): 0 (0) no. (%) | All-cause adverse event: Anemia (Safety; Grade 4): 0 (0) no. (%) | All-cause adverse event: Any (Safety; Grade 4): 2 (4) no. (%) | All-cause adverse event: Arthralgia (Safety; Grade 4): 0 (0) no. (%) | All-cause adverse event: Back pain (Safety; Grade 4): 0 (0) no. (%) | All-cause adverse event: Blood creatinine increased (Safety; Grade 4): 0 (0) no. (%) | All-cause adverse event: Constipation (Safety; Grade 4): 0 (0) no. (%) | All-cause adverse event: Cough (Safety; Grade 4): 0 (0) no. (%) | All-cause adverse event: Dehydration (Safety; Grade 4): 0 (0) no. (%) | All-cause adverse event: Diarrhea (Safety; Grade 4): 0 (0) no. (%) | All-cause adverse event: Dizziness (Safety; Grade 4): 0 (0) no. (%) | All-cause adverse event: Dyspnea (Safety; Grade 4): 0 (0) no. (%) | All-cause adverse event: Edema peripheral (Safety; Grade 4): 0 (0) no. (%) | All-cause adverse event: Fatigue (Safety; Grade 4): 0 (0) no. (%) | All-cause adverse event: Headache (Safety; Grade 4): 0 (0) no. (%) | All-cause adverse event: Hyperkalemia (Safety; Grade 4): 0 (0) no. (%) | All-cause adverse event: Hypoxia (Safety; Grade 4): 0 (0) no. (%) | All-cause adverse event: Nausea (Safety; Grade 4): 0 (0) no. (%) | All-cause adverse event: Vomiting (Safety; Grade 4): 0 (0) no. (%) | Patients requiring dose reductions or discontinuations for anemia (Safety; ccRCC cohort): No patients | Patients with at least one adverse event (Safety; ccRCC cohort): All patients | Treatment-related grade 4 or 5 events (Safety; ccRCC cohort): No treatment-related grade 4 or 5 events occurred | Treatment-related adverse event: anemia (Safety; ccRCC cohort n = 55): 71% | Treatment-related adverse event: hypoxia (Safety; ccRCC cohort n = 55): 18% | Treatment-related adverse event: nausea (Safety; ccRCC cohort n = 55): 15% | Treatment-related adverse event: peripheral edema (Safety; ccRCC cohort n = 55): 16% | Grade ≥3 treatment-emergent adverse event: anemia (Safety; [6]): 27% | Grade ≥3 treatment-emergent adverse event: hypoxia (Safety; [6]): 16% | Patients requiring dose reductions because of treatment-related adverse events (Safety; ccRCC cohort, five patients): 9% | Patients who discontinued after treatment-related adverse events (Safety; ccRCC cohort, two patients, both hypoxia): 4% | Patients with grade 5 adverse events (Safety; ccRCC cohort, disease progression, malignant neoplasm progression, acute kidney injury, cardiac arrest): four patients | Change in plasma erythropoietin (erythropoietin): reductions

Source: article PMC9128828 (Nature medicine, 2021)
